{"source": "paper PMC3752901", "about": "(Clinical cancer research : an official journal of the …, 2013)", "key": {"[1]": {"details": "human, oral administration; cited from earlier work"}, "[2]": {"experiment": "Plasma pharmacokinetics in wildtype and Abcc4", "details": "for clearance / Cmax / Tmax: male, C57BL/6, mouse, plasma, 10 mg/kg; for clearance: CL"}, "[3]": {"biological_target": "T1, mouse Abcc4 (Mus musculus, UniProt E9Q236)", "T1 sequence (E9Q236 1-1325)": "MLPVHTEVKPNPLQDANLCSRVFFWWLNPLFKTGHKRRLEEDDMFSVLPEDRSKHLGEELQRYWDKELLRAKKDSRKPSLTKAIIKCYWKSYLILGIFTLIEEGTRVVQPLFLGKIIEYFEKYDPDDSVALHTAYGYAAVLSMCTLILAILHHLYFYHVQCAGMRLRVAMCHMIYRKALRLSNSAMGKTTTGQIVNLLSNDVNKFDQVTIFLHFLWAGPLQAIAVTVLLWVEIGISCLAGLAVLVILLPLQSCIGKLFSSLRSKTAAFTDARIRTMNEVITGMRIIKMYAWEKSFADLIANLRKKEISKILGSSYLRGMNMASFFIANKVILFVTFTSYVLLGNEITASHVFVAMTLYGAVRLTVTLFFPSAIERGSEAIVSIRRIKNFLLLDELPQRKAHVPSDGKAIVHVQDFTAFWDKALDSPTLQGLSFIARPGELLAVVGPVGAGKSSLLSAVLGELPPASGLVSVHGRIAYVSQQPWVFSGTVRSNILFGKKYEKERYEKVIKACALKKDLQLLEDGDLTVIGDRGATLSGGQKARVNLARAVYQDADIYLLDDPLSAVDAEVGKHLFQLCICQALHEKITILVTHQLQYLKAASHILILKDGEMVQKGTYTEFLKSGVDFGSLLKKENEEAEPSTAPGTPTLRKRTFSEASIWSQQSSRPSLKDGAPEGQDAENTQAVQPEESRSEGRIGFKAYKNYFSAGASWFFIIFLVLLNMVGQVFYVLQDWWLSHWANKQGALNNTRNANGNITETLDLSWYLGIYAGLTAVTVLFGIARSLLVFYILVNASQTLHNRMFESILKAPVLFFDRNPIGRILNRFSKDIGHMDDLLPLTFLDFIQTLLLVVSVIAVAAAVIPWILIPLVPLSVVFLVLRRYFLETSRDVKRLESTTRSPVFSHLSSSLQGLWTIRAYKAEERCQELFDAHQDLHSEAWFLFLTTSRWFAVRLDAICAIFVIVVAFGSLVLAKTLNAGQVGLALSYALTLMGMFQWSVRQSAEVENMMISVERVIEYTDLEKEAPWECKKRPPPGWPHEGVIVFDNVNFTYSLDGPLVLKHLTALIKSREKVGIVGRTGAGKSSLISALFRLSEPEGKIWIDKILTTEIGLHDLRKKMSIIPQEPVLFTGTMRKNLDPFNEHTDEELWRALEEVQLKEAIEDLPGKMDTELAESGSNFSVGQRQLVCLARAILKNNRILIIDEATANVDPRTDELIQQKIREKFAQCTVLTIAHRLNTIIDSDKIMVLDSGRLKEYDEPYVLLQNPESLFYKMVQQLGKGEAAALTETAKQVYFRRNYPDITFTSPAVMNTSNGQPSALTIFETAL", "experiment": "Accumulation/efflux in Saos-2 cells transfected with Abcc4", "details": "100 μM, 4-h incubation"}, "[4]": {"biological_target": "T2, mOct2 (Mus musculus, UniProt O70577)", "T2 sequence (O70577 1-553)": "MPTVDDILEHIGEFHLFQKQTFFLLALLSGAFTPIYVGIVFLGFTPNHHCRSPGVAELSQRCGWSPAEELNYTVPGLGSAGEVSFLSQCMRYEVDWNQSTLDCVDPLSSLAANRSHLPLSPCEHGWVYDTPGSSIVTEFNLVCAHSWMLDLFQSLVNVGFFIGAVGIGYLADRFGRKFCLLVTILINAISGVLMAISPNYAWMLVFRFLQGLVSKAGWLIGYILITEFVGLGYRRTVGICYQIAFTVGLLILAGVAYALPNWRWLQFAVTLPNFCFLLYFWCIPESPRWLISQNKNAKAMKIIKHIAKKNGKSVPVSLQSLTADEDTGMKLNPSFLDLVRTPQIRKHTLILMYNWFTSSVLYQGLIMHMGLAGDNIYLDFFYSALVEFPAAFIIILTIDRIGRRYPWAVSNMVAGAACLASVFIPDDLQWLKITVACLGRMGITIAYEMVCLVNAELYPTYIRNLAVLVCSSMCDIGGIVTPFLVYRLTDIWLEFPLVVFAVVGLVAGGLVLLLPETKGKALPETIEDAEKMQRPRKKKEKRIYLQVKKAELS", "experiment": "Uptake in HEK293 cells expressing mOct2", "assay_type": "in vitro ADME", "details": "HEK293, 1 μM"}, "[5]": {"details": "cited from earlier work"}, "[6]": {"biological_target": "T3, mOct1 (Mus musculus, UniProt O08966)", "T3 sequence (O08966 1-556)": "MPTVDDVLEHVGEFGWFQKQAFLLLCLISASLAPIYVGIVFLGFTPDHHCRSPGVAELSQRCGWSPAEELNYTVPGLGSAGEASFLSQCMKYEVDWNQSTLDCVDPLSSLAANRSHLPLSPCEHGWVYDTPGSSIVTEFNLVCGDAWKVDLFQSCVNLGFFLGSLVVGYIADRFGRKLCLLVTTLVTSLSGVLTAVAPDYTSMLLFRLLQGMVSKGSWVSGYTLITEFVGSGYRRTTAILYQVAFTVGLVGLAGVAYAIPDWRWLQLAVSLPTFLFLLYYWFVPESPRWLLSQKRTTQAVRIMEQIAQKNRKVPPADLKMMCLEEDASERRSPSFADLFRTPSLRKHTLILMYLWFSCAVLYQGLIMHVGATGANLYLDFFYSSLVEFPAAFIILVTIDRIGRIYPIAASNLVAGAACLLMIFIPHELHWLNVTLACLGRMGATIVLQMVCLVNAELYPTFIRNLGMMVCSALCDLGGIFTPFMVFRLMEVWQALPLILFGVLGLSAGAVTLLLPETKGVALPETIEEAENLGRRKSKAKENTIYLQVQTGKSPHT", "experiment": "Uptake in HEK293 cells expressing mOct1", "assay_type": "in vitro ADME", "details": "HEK293, 1 μM"}, "[7]": {"experiment": "Binding to serum proteins", "assay_type": "in vitro ADME", "details": "male, C57BL/6, mouse"}, "[8]": {"experiment": "Blood cell partitioning", "assay_type": "in vitro ADME, mouse"}, "[9]": {"details": "iv, i.v. 10 mg/kg, Abcc4(−/−) mice"}, "[10]": {"details": "iv, i.v. 10 mg/kg, wildtype mice"}, "[11]": {"details": "po, oral 10 mg/kg, Abcc4(−/−) mice"}, "[12]": {"details": "po, oral 10 mg/kg, wildtype mice"}}, "note": "Where two headings read alike, the source gives them in different places.", "data": [{"compound": "Cc1nc(Nc2ncc(C(=O)Nc3c(C)cccc3Cl)s2)cc(N2CCN(CCO)CC2)n1", "note": "[dasatinib, Dasatinib]", "values": [{"measurement": "unchanged drug as share of the dose recovered in feces", "setting": "[1]", "result": 19, "unit": "%"}, {"measurement": "unchanged drug as share of the dose recovered in urine", "setting": "[1]", "result": "less than 1%"}, {"measurement": "clearance", "setting": "[2]; [9]", "result": 41.9, "unit": "mL/min/kg"}, {"measurement": "clearance", "setting": "[2]; [10]", "result": 49.6, "unit": "mL/min/kg"}, {"measurement": "Cmax", "setting": "[2]; [9]", "result": 3460, "unit": "ng/mL"}, {"measurement": "Cmax", "setting": "[2]; [10]", "result": 3390, "unit": "ng/mL"}, {"measurement": "Cmax", "setting": "[2]; [11]", "result": "48.1 ± 16.5", "unit": "ng/mL"}, {"measurement": "Cmax", "setting": "[2]; [12]", "result": "182 ± 93.8", "unit": "ng/mL"}, {"measurement": "Tmax", "setting": "[2]; [11]", "result": "2.19 ± 1.06", "unit": "h"}, {"measurement": "Tmax", "setting": "[2]; [12]", "result": "0.306 ± 0.223", "unit": "h"}, {"measurement": "Ka", "setting": "[2]; oral 10 mg/kg, Abcc4(−/−) mice", "result": "2.49 ± 0.92", "unit": "h⁻¹"}, {"measurement": "Ka", "setting": "[2]; oral 10 mg/kg, wildtype mice", "result": "34.3 ± 6.85", "unit": "h⁻¹"}, {"measurement": "transport by mouse Abcc4 (accumulation in Saos-2 cells overexpressing Abcc4 compared to control cells)", "setting": "[3]", "result": "significantly reduced accumulation"}, {"measurement": "intracellular accumulation on overexpression of Oct2", "setting": "[4]", "result": "did not alter intracellular accumulation"}, {"measurement": "coefficient of variation in AUC", "setting": "[5]; adult patients", "result": "> 50", "unit": "%"}, {"measurement": "coefficient of variation in AUC", "setting": "[5]; pediatric patient population", "result": "≤ 46", "unit": "%"}, {"measurement": "intracellular accumulation on overexpression of Oct1", "setting": "[6]", "result": "did not alter intracellular accumulation"}, {"measurement": "fraction unbound", "setting": "[7]; Abcc4(−/−) mice", "result": "0.0812 ± 0.00493"}, {"measurement": "fraction unbound", "setting": "[7]; wildtype mice", "result": "0.087 ± 0.0044"}, {"measurement": "Blood cell partitioning", "setting": "[8]; Abcc4(−/−) mice", "result": "36.1 ± 2.86", "unit": "%"}, {"measurement": "Blood cell partitioning", "setting": "[8]; wildtype mice", "result": "33.0 ± 1.04", "unit": "%"}]}]}
